Data reported in the OligoGym collection.
Bases are written 5' to 3'; sugars and linkages follow in the same order, as letters with counts (s phosphorothioate, o phosphodiester; PS: all linkages phosphorothioate). The collection does not say whether C is 5-methylated. l = locked nucleic acid (LNA); d = 2'-deoxy (DNA)

Molecular target: Tau
Assay: rat primary cortical neurons, FLIPR, 25 uM ASO

| Sequence | calcium oscillation score |
| --- | --- |
| CATCCACTTAGACACTC (sugars l4 d11 l2, PS) | 43.8 % of control |
| CTTATTAATTATCTGC (sugars l4 d8 l4, PS) | 33.9 % of control |
| ATTTCCAAATTCACTTTTAC (sugars ldlllddddddddddlldll, PS) | 143 % of control |
| CTAAAGTCCCAGGTCT (sugars l3 d10 l3, PS) | 59.2 % of control |
| GAGCACTAACTCTAAGTAGA (sugars l3 d14 l3, PS) | 23.8 % of control |
| CGTCAGCTAGCGTGGC (sugars l3 d10 l3, PS) | 117 % of control |
| TAATTAGAAACCTCCT (sugars l4 d8 l4, PS) | 73.3 % of control |
| CTACACCACTGTTCCATA (sugars l1 d15 l2, PS) | 62 % of control |
| TAACCAACTTTCATCTAC (sugars l4 d10 l4, PS) | 98.4 % of control |
| AACTAAATTTACCTCA (sugars l4 d8 l4, PS) | 88.1 % of control |
| TCAACTGGTTTGTAGA (sugars l3 d10 l3, PS) | 110 % of control |
| TGGATATAGTTAAGGC (sugars l4 d9 l3, PS) | 107 % of control |
| CCCTTGATCATATTTGTGGC (sugars l3 d14 l3, PS) | 35.7 % of control |
| CGTTCTCGCGGAAGGT (sugars l3 d10 l3, PS) | 13 % of control |
| TTATTTCCAAATTCACTTTT (sugars lllddldddddddddlldll, PS) | 114 % of control |
| TTCTTCATTCTTGCCC (sugars l2 d12 l2, PS) | 15.5 % of control |
| GTTGCCTAATGAGCCACACT (sugars l3 d14 l3, PS) | 59.8 % of control |
| TTTTTTAACTCCCAACTCTT (sugars l4 d14 l2, PS) | 98.3 % of control |
| TACACTGTCCTTTAAAC (sugars l4 d11 l2, PS) | 66.1 % of control |
| ATCTTATTGCTTTCCAA (sugars l4 d10 l3, PS) | 75.3 % of control |
| AACCCCATAGACATAA (sugars l4 d8 l4, PS) | 78.6 % of control |
| TTTCATCTACTTTTCAGC (sugars l4 d12 l2, PS) | 39.4 % of control |

| Sequence | calcium oscillation score |
| --- | --- |
| AGCAATAGCAAACAGG (sugars l3 d10 l3, PS) | 48.8 % of control |
| AATTTCACCCTCAGTA (sugars l3 d10 l3, PS) | 73 % of control |
| CGCTTCCAGTCCCG (sugars l3 d8 l3, PS) | 107 % of control |
| CCTAATCCTGTGCT (sugars l3 d8 l3, PS) | 62.6 % of control |
| GTTTATGATGGATGTTGCCT (sugars l3 d14 l3, PS) | 3.32 % of control |
| GTGATTAACCAATTAACCGA (sugars l3 d14 l3, PS) | 6.48 % of control |
| GCATGATTGTGGGC (sugars l3 d8 l3, PS) | 85.7 % of control |
| TCCACAAACCAACTCAA (sugars l3 d10 l4, PS) | 99.5 % of control |
| CCCAGCGTGATCTTCCATCA (sugars lldllddddddddddlldll, PS) | 100 % of control |
| AGCAATAGCAAACAG (sugars l3 d9 l3, PS) | 52.8 % of control |
| TTTGAGTTGAGGGACC (sugars l3 d10 l3, PS) | 0 % of control |
| CCATTTTCCATATAATT (sugars l4 d9 l4, PS) | 76.5 % of control |
| AATTTAGTCACCATCA (sugars l4 d8 l4, PS) | 62.1 % of control |
| CTTACTGATCATAATC (sugars l4 d8 l4, PS) | 56.4 % of control |
| TTCACACAACAAACTATTAT (sugars l4 d12 l4, PS) | 70.7 % of control |
| CCAAATTCCTCATAATCCA (sugars l2 d15 l2, PS) | 75 % of control |
| CAACTGGTTTGTAGACTATT (sugars l3 d14 l3, PS) | 6.64 % of control |
| CTGGTTTGTAGACTATTTGC (sugars l3 d14 l3, PS) | 0 % of control |
| ATGACCTCAACTCTACCT (sugars l3 d13 l2, PS) | 61 % of control |
| ATTTCCAAATTCACTTTTAC (sugars lllldddddddddldlddll, PS) | 137 % of control |
| GCGCAGGCGCGAGCAG (sugars l3 d10 l3, PS) | 0 % of control |
| CCTGGTTTATGATGGATGTT (sugars l3 d14 l3, PS) | 0 % of control |

| Sequence | calcium oscillation score |
| --- | --- |
| TAATTATTAAATCTTCTCTT (sugars l4 d12 l4, PS) | 60.1 % of control |
| TTTCAACTCTTAGCATCC (sugars l2 d12 l4, PS) | 52.5 % of control |
| CTTTATTTCCAAATTCAC (sugars l3 d11 l4, PS) | 112 % of control |
| AGCAGGTTAAGTGATTAACC (sugars l3 d14 l3, PS) | 16 % of control |
| CCCAGACCATCAATTTC (sugars l2 d12 l3, PS) | 82.2 % of control |
| CCCTCACTTTTTATTCAAC (sugars l2 d14 l3, PS) | 76 % of control |
| TATGTTTTTTAACTCCC (sugars l4 d11 l2, PS) | 94.3 % of control |
| GGCGGTGACTGCGA (sugars l3 d8 l3, PS) | 41.7 % of control |
| CGTCTTTGCTTTTACTGACC (sugars l3 d14 l3, PS) | 29.6 % of control |
| TCGAAACCAAGGTCCCACCA (sugars l3 d14 l3, PS) | 28.2 % of control |
| TCTTCAGGTCTGGCAT (sugars l3 d10 l3, PS) | 39.1 % of control |
| ATATTGAACTCACCCAC (sugars l2 d11 l4, PS) | 54.3 % of control |
| ATGCTTACACACCACA (sugars l2 d10 l4, PS) | 88.5 % of control |
| TGTTGCCTAATGAGCCACAC (sugars l3 d14 l3, PS) | 54.2 % of control |
| CTTTATTTCCAAATTCACT (sugars l4 d10 l2 d1 l2, PS) | 93.2 % of control |
| TTCCACTACAAGCTCCAC (sugars l3 d13 l2, PS) | 52 % of control |
| GAAATCCCTCTACTCC (sugars l2 d11 l3, PS) | 70.7 % of control |
| TCTGTCTTGGCTTTG (sugars l3 d9 l3, PS) | 40.6 % of control |
| AATATTACACCATCCA (sugars l4 d8 l4, PS) | 101 % of control |
| GCAGAGGAACGTGTGG (sugars l3 d10 l3, PS) | 0 % of control |
| CCCAGCACACAGGCAGCCAC (sugars l3 d14 l3, PS) | 24.2 % of control |
| GTAGACTATTTGCA (sugars l3 d8 l3, PS) | 105 % of control |

| Sequence | calcium oscillation score |
| --- | --- |
| CATCTCTCTAGACATCT (sugars l4 d11 l2, PS) | 79.4 % of control |
| ACACCTCGTCAGCTAGCGTG (sugars l3 d14 l3, PS) | 0 % of control |
| ACCACATTATCATCCATT (sugars l2 d12 l4, PS) | 55.7 % of control |
| CCTCCACCCTTACACA (sugars l1 d13 l2, PS) | 58.9 % of control |
| TTTATAGGTGCATAGT (sugars l2 d10 l4, PS) | 0 % of control |
| TAGTCACTCTGGTGA (sugars l3 d9 l3, PS) | 78.1 % of control |
| TGCTTTTCCCAATTATT (sugars l3 d11 l3, PS) | 69.5 % of control |
| TATTAATTCATAAATGACTA (sugars l3 d14 l3, PS) | 40.3 % of control |
| CTCATTTTTCTCAAGCTC (sugars l3 d12 l3, PS) | 44.8 % of control |
| CATGATCTTAGGCTGG (sugars l3 d10 l3, PS) | 7.83 % of control |
| TTTATTTCCAAATTCACTTT (sugars l2 d16 l2, PS) | 141 % of control |
| GCTGGGTGGTGTCTTTGGAG (sugars l3 d14 l3, PS) | 0 % of control |
| AGAAATAAGTGGTAGT (sugars l4 d9 l3, PS) | 89.3 % of control |
| TTGAGTTGAGGGACCC (sugars l3 d10 l3, PS) | 0 % of control |
| CCATTAATTTAGCCAA (sugars l3 d9 l4, PS) | 87.2 % of control |
| TGCCTAATGAGCCACACTTG (sugars l3 d14 l3, PS) | 29.9 % of control |
| GTTAGCCCTAAAGTCC (sugars l3 d10 l3, PS) | 110 % of control |
| AGGTATCCAGCCATATTTCA (sugars l3 d14 l3, PS) | 20.2 % of control |
| CATGCTTACACACCACAC (sugars l2 d13 l3, PS) | 73.5 % of control |
| TCCTCACTTTACACATTAAA (sugars l4 d14 l2, PS) | 70.3 % of control |
| TTAACTCATCAACACCT (sugars l4 d9 l4, PS) | 86.6 % of control |
| TTTTAACTCCCAACTCTTT (sugars l2 d13 l4, PS) | 99.7 % of control |

| Sequence | calcium oscillation score |
| --- | --- |
| GTTGCCTAATGAGCCA (sugars l3 d10 l3, PS) | 46.1 % of control |
| CCCGCCTTTAGTGATTACAG (sugars l3 d14 l3, PS) | 2.38 % of control |
| GCCCATTCTACCTGGCCCAT (sugars l3 d14 l3, PS) | 38.3 % of control |
| ACCAGTTACCATCATAC (sugars l4 d11 l2, PS) | 93.2 % of control |
| ATAGATTTTACTACTC (sugars l4 d8 l4, PS) | 73.3 % of control |
| TAGACTCCTTCTTTAGGCTT (sugars l3 d14 l3, PS) | 45.2 % of control |
| CTTTTTCTTGTTCTAAC (sugars l2 d11 l4, PS) | 57.9 % of control |
| CCAGGGAGGCAGACACCTCG (sugars l3 d14 l3, PS) | 10.2 % of control |
| CTTAAAATTTTTCTTATTTT (sugars l4 d12 l4, PS) | 62.8 % of control |
| TCCACCCTTACACATAG (sugars l3 d12 l2, PS) | 40.4 % of control |
| GACTTGGGTGGAGTAC (sugars l3 d10 l3, PS) | 0 % of control |
| CCTTTTAAAAGAACCCT (sugars l3 d11 l3, PS) | 96 % of control |
| ACCCCACATTTGCAAACC (sugars l2 d13 l3, PS) | 46.2 % of control |
| CTGGCCACCTCCTGGT (sugars l3 d10 l3, PS) | 16.1 % of control |
| CAATTCTCATTTCAACCTTC (sugars l2 d14 l4, PS) | 54.1 % of control |
| TCATTCAGCCAATCACA (sugars l3 d11 l3, PS) | 45.6 % of control |
| CTCACCCCAAACAAGAA (sugars l2 d11 l4, PS) | 45.1 % of control |
| CCCACCCATCAATTTGGAAA (sugars l3 d14 l3, PS) | 11.7 % of control |
| ATTTAGTCACCATCACT (sugars l3 d10 l4, PS) | 102 % of control |
| GTTAACTCATCAACAC (sugars l4 d9 l3, PS) | 59 % of control |
| AATTTACACCCAAACCTA (sugars l2 d12 l4, PS) | 81.9 % of control |
